Laboratory results as given in ChEMBL document CHEMBL1177828, “Design and evaluation of 3,6-di(hetero)aryl imidazo[1,2-a]pyrazines as inhibitors of checkpoint and other kinases” (Bioorg Med Chem Lett, 2010).

Key:
[1] = molecular target: MAP kinase-activated protein kinase 2 (Homo sapiens) (UniProt P49137); assay: Inhibition of MAPKAP2 at 10 uM by mobility shift assay
[2] = molecular target: T1, Protein kinase C zeta type (Homo sapiens) (UniProt Q05513); assay: Inhibition of PKCz at 10 uM by mobility shift assay
T1 sequence (whole entry): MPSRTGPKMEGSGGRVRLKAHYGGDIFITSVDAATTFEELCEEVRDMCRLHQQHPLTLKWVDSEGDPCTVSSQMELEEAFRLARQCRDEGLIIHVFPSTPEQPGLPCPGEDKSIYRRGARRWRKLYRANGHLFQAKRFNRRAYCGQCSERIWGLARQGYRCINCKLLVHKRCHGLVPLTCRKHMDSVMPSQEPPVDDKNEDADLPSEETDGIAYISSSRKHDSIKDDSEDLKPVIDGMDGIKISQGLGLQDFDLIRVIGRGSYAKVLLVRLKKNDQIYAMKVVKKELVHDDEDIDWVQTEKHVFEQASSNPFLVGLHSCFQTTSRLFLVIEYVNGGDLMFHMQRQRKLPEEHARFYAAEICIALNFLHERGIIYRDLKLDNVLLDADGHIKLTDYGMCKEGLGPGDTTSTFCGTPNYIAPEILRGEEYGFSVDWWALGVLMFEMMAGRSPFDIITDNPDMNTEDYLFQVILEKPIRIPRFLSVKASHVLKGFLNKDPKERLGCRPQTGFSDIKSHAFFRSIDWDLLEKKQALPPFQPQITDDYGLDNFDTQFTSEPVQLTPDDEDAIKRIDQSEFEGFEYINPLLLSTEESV

[3] = molecular target: T2, MAP kinase-activated protein kinase 5 (Homo sapiens) (UniProt Q8IW41); assay: Inhibition of PRAK1 at 10 uM by mobility shift assay
T2 sequence (whole entry): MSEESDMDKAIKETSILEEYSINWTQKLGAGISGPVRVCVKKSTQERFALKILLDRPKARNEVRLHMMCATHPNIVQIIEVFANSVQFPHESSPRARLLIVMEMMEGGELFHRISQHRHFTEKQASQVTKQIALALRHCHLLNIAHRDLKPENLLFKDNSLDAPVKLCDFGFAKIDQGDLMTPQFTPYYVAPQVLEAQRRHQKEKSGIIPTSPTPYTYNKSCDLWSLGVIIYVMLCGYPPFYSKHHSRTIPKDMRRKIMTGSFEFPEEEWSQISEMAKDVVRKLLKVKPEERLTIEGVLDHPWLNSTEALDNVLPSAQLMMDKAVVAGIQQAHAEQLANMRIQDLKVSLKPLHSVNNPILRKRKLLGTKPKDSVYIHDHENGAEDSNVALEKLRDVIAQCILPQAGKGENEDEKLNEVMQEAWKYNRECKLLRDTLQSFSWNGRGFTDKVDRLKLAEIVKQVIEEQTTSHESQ

[4] = Inhibition of PKA at 10 uM by mobility shift assay
[5] = molecular target: RAC-alpha serine/threonine-protein kinase (Homo sapiens) (UniProt P31749); assay: Inhibition of AKT1 at 10 uM by mobility shift assay
[6] = molecular target: Tyrosine-protein kinase ABL1 (Homo sapiens, UniProt P00519); assay: Inhibition of ABL1 by Z-lite assay
[7] = molecular target: T3, Serine/threonine-protein kinase Chk1 (Homo sapiens, UniProt O14757); assay: Inhibition of CHK1 by DELFIA
T3 sequence (O14757 whole entry): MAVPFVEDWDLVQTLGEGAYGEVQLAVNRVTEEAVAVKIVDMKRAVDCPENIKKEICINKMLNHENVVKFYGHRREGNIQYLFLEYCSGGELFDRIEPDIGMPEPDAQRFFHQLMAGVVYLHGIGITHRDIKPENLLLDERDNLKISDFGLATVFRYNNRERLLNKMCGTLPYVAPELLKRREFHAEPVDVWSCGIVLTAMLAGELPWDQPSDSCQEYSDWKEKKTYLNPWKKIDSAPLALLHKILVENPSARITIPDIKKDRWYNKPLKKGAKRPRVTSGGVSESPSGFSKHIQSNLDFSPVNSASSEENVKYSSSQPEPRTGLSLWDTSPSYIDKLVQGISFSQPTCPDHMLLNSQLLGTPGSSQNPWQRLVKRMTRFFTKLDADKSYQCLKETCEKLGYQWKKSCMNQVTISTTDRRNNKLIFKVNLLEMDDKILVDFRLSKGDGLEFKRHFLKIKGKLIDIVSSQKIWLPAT

[8] = molecular target: Glycogen synthase kinase-3 beta (Homo sapiens, UniProt P49841); assay: Inhibition of GSK3-beta
Glycogen synthase kinase-3 beta, sequence (P49841 whole entry): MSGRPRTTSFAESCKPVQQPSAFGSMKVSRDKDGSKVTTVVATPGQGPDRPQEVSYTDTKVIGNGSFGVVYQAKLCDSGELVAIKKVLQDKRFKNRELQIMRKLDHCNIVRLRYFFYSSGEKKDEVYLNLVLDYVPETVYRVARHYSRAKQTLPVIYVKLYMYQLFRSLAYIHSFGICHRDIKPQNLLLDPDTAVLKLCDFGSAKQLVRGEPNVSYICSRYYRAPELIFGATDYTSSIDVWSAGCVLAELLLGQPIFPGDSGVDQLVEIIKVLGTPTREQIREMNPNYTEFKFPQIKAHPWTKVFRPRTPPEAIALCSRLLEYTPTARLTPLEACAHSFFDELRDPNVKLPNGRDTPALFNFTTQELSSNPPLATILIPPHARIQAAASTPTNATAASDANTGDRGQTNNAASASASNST

MAP kinase-activated protein kinase 2 (Homo sapiens), sequence (P49137 whole entry, looked up): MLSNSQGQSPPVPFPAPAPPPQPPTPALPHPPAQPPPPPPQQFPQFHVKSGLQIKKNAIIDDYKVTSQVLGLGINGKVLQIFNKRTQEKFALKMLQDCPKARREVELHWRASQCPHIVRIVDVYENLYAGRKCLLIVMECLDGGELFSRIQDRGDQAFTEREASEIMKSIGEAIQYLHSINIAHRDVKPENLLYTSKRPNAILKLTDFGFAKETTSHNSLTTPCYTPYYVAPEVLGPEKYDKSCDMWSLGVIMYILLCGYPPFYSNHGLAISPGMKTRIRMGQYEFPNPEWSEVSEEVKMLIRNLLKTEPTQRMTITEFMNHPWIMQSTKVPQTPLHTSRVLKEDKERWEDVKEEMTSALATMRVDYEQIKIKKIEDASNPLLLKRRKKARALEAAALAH
RAC-alpha serine/threonine-protein kinase (Homo sapiens), sequence (P31749 whole entry): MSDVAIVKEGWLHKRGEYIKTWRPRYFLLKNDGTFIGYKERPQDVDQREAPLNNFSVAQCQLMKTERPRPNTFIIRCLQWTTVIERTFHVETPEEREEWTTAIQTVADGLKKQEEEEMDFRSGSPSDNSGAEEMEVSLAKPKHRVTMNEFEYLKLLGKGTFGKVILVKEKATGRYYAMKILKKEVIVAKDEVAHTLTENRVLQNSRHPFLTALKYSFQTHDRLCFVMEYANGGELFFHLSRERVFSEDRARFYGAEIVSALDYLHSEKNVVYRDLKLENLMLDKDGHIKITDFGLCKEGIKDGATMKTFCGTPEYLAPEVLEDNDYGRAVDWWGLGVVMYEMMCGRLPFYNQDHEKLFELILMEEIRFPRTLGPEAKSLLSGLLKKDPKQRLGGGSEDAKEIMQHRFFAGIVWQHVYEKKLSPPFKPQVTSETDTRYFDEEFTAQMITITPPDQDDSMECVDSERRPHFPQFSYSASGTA
Tyrosine-protein kinase ABL1, sequence (P00519 whole entry): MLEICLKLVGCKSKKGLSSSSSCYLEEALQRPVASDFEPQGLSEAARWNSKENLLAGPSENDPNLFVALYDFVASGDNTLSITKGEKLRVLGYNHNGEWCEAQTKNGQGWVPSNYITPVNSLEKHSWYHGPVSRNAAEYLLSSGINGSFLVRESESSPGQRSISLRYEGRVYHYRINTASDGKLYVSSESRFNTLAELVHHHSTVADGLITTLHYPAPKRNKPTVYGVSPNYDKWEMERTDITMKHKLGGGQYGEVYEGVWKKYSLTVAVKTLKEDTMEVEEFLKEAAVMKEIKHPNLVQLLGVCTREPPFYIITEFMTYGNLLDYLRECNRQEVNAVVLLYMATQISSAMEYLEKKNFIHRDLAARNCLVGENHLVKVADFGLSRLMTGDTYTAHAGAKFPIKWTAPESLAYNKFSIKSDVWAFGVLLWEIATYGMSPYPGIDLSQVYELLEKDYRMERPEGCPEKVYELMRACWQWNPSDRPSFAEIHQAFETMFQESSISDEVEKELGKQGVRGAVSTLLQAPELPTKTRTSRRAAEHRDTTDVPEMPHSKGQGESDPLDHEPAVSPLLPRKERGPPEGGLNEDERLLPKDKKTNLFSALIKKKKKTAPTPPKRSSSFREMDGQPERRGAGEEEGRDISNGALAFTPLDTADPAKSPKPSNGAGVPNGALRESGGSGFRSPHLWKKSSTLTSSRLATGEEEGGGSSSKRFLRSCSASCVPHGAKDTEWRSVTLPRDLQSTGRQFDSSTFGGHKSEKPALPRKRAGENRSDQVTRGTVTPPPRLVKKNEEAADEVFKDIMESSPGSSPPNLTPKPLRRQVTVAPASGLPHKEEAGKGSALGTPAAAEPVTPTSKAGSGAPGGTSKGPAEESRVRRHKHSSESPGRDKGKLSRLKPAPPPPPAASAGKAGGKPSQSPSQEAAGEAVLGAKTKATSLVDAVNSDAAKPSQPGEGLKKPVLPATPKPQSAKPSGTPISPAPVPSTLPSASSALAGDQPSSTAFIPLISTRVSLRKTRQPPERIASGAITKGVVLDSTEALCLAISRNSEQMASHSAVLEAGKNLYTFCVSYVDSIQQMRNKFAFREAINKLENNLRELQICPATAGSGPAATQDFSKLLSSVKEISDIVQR

SMILES | inhibition [1] | inhibition [2] | inhibition [3] | inhibition [4] | inhibition [5] | IC50 [6] | IC50 [7] | IC50 [8]
OCc1cccc(-c2cn3c(-c4cn[nH]c4)cnc3cn2)c1 | -6% | -6% | 4% | -1% |  |  |  | 
c1n[nH]cc1-c1cnc2ncc(-c3cn[nH]c3)n2c1 | -2% | 11% | 6% |  | -6% | 0.44 µM | 5 µM | 
c1ccc2c(-c3cnc4cnc(-c5cn[nH]c5)cn34)c[nH]c2c1 | 35% | 20% | 35% | 2% | 11% |  |  | 
c1ccc(-c2cnc3cnc(-c4ccncc4)cn23)cc1 | -2% | 0% | 5% |  |  |  |  | 3.1 µM
